# Results taken from patent US12570655B2, “Cysteine covalent modifiers of AKT1 and uses thereof” (Terremoto Biosciences, Inc., priority 2023, dated 2026).
# pIC50: −log10 of the molar value. Like-named read-outs stand apart in the source and are kept apart here.
# Key:
# Assay type in all cases: cell-based
# [1] = biological target: T1, AKT1 WT (Homo sapiens, UniProt P31749); assay: Live cell AKT1 WT target engagement by NanoBRET competitive probe displacement; conditions: HEK293 cells transfected with kinase-NanoLuciferase fusion, 2 h at 37° C.
# T1 construct: expressed in transfected cells; host or cells: HEK293
# T1 sequence (P31749 whole entry, the tested form may be a part): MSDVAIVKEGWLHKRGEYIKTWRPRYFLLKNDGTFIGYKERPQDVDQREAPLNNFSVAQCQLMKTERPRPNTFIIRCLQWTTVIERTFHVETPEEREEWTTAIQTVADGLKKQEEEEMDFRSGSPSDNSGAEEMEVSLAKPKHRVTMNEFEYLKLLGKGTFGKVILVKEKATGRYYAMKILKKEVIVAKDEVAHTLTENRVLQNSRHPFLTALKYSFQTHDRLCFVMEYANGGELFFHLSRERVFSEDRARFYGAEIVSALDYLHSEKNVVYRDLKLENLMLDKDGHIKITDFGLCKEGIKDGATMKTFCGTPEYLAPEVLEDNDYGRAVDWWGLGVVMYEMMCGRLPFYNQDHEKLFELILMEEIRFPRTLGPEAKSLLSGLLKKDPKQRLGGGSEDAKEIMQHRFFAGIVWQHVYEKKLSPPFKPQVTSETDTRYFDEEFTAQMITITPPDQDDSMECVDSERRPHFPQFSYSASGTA
# Procedure, shortened: (§1)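 IC50 reflects displacement of a fluorescent ATP-competitive tracer, dosed near its EC50, from kinase–NanoLuciferase fusions in live HEK293 cells. Cells were incubated with compound and tracer for 2 h at 37 °C, then E600/E460 BRET was read.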
# [2] = system: LAPC4 prostate cancer cells; assay: Antiproliferative effects in LAPC4 cells (CellTiter Glo); conditions: LAPC4 cells (AKT1 E17K allele), read-out: LAPC4 proliferation IC50
# Procedure, shortened: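 Seed 1,000 cells/well in IMDM/12% FBS/1% P/S; add compound dilutions (DMSO); incubate 72 h; read intracellular ATP with CellTiter Glo; fit luminescence to log(inhibitor)-response Hill curve for IC50.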
# [3] = biological target: T2, AKT1 E17K (Homo sapiens, UniProt P31749, E17K); assay: Live cell AKT1 E17K target engagement by NanoBRET competitive probe displacement; conditions: HEK293 cells transfected with kinase-NanoLuciferase fusion, 2 h at 37° C.
# T2 construct: expressed in transfected cells; host or cells: HEK293
# T2 sequence (P31749 whole entry E17K, the tested form may be a part): as the sequence (P31749 whole entry, the tested form may be a part) above, with E17K counted along it
# Procedure, shortened: as §1
# [4] = biological target: T3, AKT2 (Homo sapiens, UniProt P31751); assay: Live cell AKT2 target engagement by NanoBRET competitive probe displacement; conditions: HEK293 cells transfected with kinase-NanoLuciferase fusion, 2 h at 37° C.
# T3 construct: expressed in transfected cells; host or cells: HEK293
# T3 sequence (P31751 whole entry, the tested form may be a part): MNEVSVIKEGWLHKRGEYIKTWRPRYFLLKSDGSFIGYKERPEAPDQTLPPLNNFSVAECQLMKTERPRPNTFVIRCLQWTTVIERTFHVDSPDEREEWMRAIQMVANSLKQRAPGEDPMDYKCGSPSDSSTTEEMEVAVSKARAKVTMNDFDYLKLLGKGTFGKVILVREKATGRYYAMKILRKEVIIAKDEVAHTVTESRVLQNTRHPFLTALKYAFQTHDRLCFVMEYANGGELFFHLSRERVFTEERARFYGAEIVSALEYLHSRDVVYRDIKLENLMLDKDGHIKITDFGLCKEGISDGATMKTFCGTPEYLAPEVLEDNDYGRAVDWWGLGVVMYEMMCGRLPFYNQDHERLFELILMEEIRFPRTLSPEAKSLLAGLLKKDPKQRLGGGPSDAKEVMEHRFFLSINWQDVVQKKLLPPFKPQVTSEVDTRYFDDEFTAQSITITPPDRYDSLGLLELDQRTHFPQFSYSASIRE
# Procedure, shortened: as §1
SMILES,pIC50 [1],"pIC50 ([2]; Homo sapiens, LAPC4, 72 h)",pIC50 [3],pIC50 [4],pIC50 ([2]; 72 h)
"C=C(C)C(=O)Nc1ccccc1C(=O)N[C@H]1CCc2cc(-n3c(-c4cccnc4N)nc4ccc(-n5cccn5)nc43)ccc21 [Example 17, (S)-N-(5-(2-(2-aminopyridin-3-yl)-5-(1H-pyrazol-1-yl)-3H-imidazo[4,5-b]pyridin-3-yl)-2,3-dihydro-1H-inden-1-yl)-2-methacrylamidobenzamide]",7.37,5.63,6.84,5.99,–
"C=CC(=O)N1CCCC(N[C@H]2CCc3cc(-n4c(-c5cccnc5N)nc5ccc(-n6cccn6)nc54)ccc32)C1 (single isomer, unassigned) [Example 125, 1-[(3*)-3-{[(1S)-5-[2-(2-aminopyridin-3-yl)-5-(pyrazol-1-yl)imidazo[4,5-b]pyridin-3-yl]-2,3-dihydro-1H-inden-1-yl]amino}piperidin-1-yl]prop-2-en-1-one]",6.53,–,6.04,5.48,5.68
"C=CC(=O)N1CCC[C@H]1C(=O)N[C@H]1CCc2cc(-n3c(-c4cccnc4N)nc4ccc(-n5cccn5)nc43)ccc21 [Example 26, (S)-1-acryloyl-N—((S)-5-(2-(2-aminopyridin-3-yl)-5-(1H-pyrazol-1-yl)-3H-imidazo[4,5-b]pyridin-3-yl)-2,3-dihydro-1H-inden-1-yl)pyrrolidine-2-carboxamide]",< 6.00,5.69,< 6.00,< 5.00,–
"C=CC(=O)N1CCC(N[C@H]2CCc3cc(-n4c(-c5cccnc5N)nc5ccc(N6CCOCC6)nc54)ccc32)CC1 [Example 86, (S)-1-(4-((5-(2-(2-aminopyridin-3-yl)-5-morpholino-3H-imidazo[4,5-b]pyridin-3-yl)-2,3-dihydro-1H-inden-1-yl)amino)piperidin-1-yl)prop-2-en-1-one]",7.86,6.74,6.82,6.23,–
"C=CC(=O)N(C)CCCN[C@H]1CCc2cc(-n3c(-c4cccnc4N)nc4ccc(-n5cccn5)nc43)ccc21 [Example 166, (S)-N-(3-((5-(2-(2-aminopyridin-3-yl)-5-(1H-pyrazol-1-yl)-3H-imidazo[4,5-b]pyridin-3-yl)-2,3-dihydro-1H-inden-1-yl)amino)propyl)-N-methylacrylamide]",7.66,6.94,7.13,6.59,–
"C=CC(=O)N1CCC(N[C@H]2CCc3cc(-n4c(-c5cccnc5N)nc5ccc(-c6cccnc6)nc54)ccc32)CC1 [Example 110, (S)-1-(4-((5-(2-(2-aminopyridin-3-yl)-5-(pyridin-3-yl)-3H-imidazo[4,5-b]pyridin-3-yl)-2,3-dihydro-1H-inden-1-yl)amino)piperidin-1-yl)prop-2-en-1-one]",7.66,6.53,6.85,6.20,–
"CN(C)C/C=C/C(=O)Nc1ccccc1C(=O)N[C@H]1CCc2cc(-n3c(-c4cccnc4N)nc4ccc(-n5cccn5)nc43)ccc21 [Example 16, (S,E)-N-(5-(2-(2-aminopyridin-3-yl)-5-(1H-pyrazol-1-yl)-3H-imidazo[4,5-b]pyridin-3-yl)-2,3-dihydro-1H-inden-1-yl)-2-(4-(dimethylamino)but-2-enamido)benzamide]",7.95,6.74,7.28,7.17,–
"C=C(F)C(=O)Nc1cnn(C)c1C(=O)N[C@H]1CCc2cc(-n3c(-c4cccnc4N)nc4ccc(-n5cccn5)nc43)ccc21 [Example 35, (S)-N-(5-(2-(2-aminopyridin-3-yl)-5-(1H-pyrazol-1-yl)-3H-imidazo[4,5-b]pyridin-3-yl)-2,3-dihydro-1H-inden-1-yl)-4-(2-fluoroacrylamido)-1-methyl-1H-pyrazole-5-carboxamide]",6.61,5.25,< 6.00,5.53,–
"C=CC(=O)N1CCC(N[C@H]2CCc3cc(-n4c(-c5cccnc5N)nc5ccc(-n6cccn6)nc54)ccc32)C(C#N)C1 (single isomer, unassigned) [Example 155, (3*,4*)-1-acryloyl-4-(((S)-5-(2-(2-aminopyridin-3-yl)-5-(1H-pyrazol-1-yl)-3H-imidazo[4,5-b]pyridin-3-yl)-2,3-dihydro-1H-inden-1-yl)amino)piperidine-3-carbonitrile]",7.08,–,< 6.00,5.91,6.31
"C=CC(=O)N1CCC(N[C@H]2CCc3cc(-n4c(-c5cccnc5N)nc5ccc(-n6cccn6)nc54)ccc32)C[C@H]1COC (single isomer, unassigned) [Example 129, 1-[(2S,4*)-4-{[(1S)-5-[2-(2-aminopyridin-3-yl)-5-(pyrazol-1-yl)imidazo[4,5-b]pyridin-3-yl]-2,3-dihydro-1H-inden-1-yl]amino}-2-(methoxymethyl)piperidin-1-yl]prop-2-en-1-one]",6.94,–,< 6.00,5.57,< 5.00
"C=CC(=O)N1C[C@H]2C[C@@H](C1)C2N[C@H]1CCc2cc(-n3c(-c4cccnc4N)nc4ccc(-n5cccn5)nc43)ccc21 (single isomer, unassigned) [Example 60, 1-((1R,5S,6*)-6-(((S)-5-(2-(2-aminopyridin-3-yl)-5-(1H-pyrazol-1-yl)-3H-imidazo[4,5-b]pyridin-3-yl)-2,3-dihydro-1H-inden-1-yl)amino)-3-azabicyclo[3.1.1]heptan-3-yl)prop-2-en-1-one]",< 6.00,–,6.39,5.77,5.86
"C=CC(=O)N1CCc2c(C(=O)N[C@H]3CCc4cc(-n5c(-c6cccnc6N)nc6ccc(-n7cccn7)nc65)ccc43)cccc21 [Example 3, N-[(1S)-5-[2-(2-aminopyridin-3-yl)-5-(pyrazol-1-yl)imidazo[4,5-b]pyridin-3-yl]-2,3-dihydro-1H-inden-1-yl]-1-(prop-2-enoyl)-2,3-dihydroindole-4-carboxamide]",7.82,6.08,7.48,7.15,–

# The next lines start with the values.
pIC50 [1],"pIC50 ([2]; Homo sapiens, LAPC4, 72 h)",pIC50 [3],pIC50 [4],pIC50 ([2]; 72 h),SMILES
5.51,5.77,6.95,6.33,–,"C=CC(=O)N1CCC(N[C@H]2CCc3cc(-n4c(-c5ccc(F)cc5)nc5ccc(-n6cccn6)nc54)ccc32)CC1 [Example 247, 1-(4-{[(1S)-5-[2-(4-fluorophenyl)-5-(pyrazol-1-yl)imidazo[4,5-b]pyridin-3-yl]-2,3-dihydro-1H-inden-1-yl]amino}piperidin-1-yl)prop-2-en-1-one]"
6.60,6.60,7.81,7.09,–,"C=CC(=O)N1CCC(N[C@H]2CCc3cc(-n4c(-c5cccnc5N)nc5ccc(-n6ccc(C(C)C)n6)nc54)ccc32)CC1 [Example 281, 1-(4-{[(1S)-5-[2-(2-aminopyridin-3-yl)-5-(3-isopropylpyrazol-1-yl)imidazo[4,5-b]pyridin-3-yl]-2,3-dihydro-1H-inden-1-yl]amino}piperidin-1-yl)prop-2-en-1-one]"
6.54,7.11,7.93,7.34,–,"C=CC(=O)N1CCC(N[C@H]2CCc3cc(-n4c(-c5cccnc5N)nc5ccc(-c6nnc(C7CC7)s6)nc54)ccc32)CC1 [Example 320, (S)-1-(4-((5-(2-(2-aminopyridin-3-yl)-5-(5-cyclopropyl-1,3,4-thiadiazol-2-yl)-3H-imidazo[4,5-b]pyridin-3-yl)-2,3-dihydro-1H-inden-1-yl)amino)piperidin-1-yl)prop-2-en-1-one]"
6.01,6.43,7.70,6.70,–,"C=CC(=O)N1CCC(NC2CCc3cc(-n4c(-c5cccnc5N)nc5ccc(C6CC6(F)F)nc54)ccc32)CC1 (single isomer, unassigned) [Example 244, 1-(4-(((*)-5-(2-(2-aminopyridin-3-yl)-5-((*)-2,2-difluorocyclopropyl)-3H-imidazo[4,5-b]pyridin-3-yl)-2,3-dihydro-1H-inden-1-yl)amino)piperidin-1-yl)prop-2-en-1-one]"
5.58,–,7.08,7.09,6.49,"C=CC(=O)N1CCC(N[C@@H]2c3ccc(-n4c(-c5cccnc5N)nc5ccc(-n6ccc(F)n6)nc54)cc3CC2F)C[C@H]1C (single isomer, unassigned) [Example 275, 1-((2R,4*)-4-(((1R,2*)-5-(2-(2-aminopyridin-3-yl)-5-(3-fluoro-1H-pyrazol-1-yl)-3H-imidazo[4,5-b]pyridin-3-yl)-2-fluoro-2,3-dihydro-1H-inden-1-yl)amino)-2-methylpiperidin-1-yl)prop-2-en-1-one]"
5.84,5.99,7.36,6.48,–,"C=CC(=O)N1CCC(N[C@H]2CCc3cc(-n4c(-c5cccs5)nc5ccc(-n6cccn6)nc54)ccc32)CC1 [Example 239, 1-(4-{[(1S)-5-[5-(pyrazol-1-yl)-2-(thiophen-2-yl)imidazo[4,5-b]pyridin-3-yl]-2,3-dihydro-1H-inden-1-yl]amino}piperidin-1-yl)prop-2-en-1-one]"
6.18,–,7.71,6.91,6.34,"C=CC(=O)N1CCC(N[C@@H]2c3ccc(-n4c(-c5cccnc5N)nc5ccc(-n6cccn6)nc54)cc3CC2F)C(C)C1 (single isomer, unassigned) [Example 290, 1-[(3*,4*)-4-{[(1R,2*)-5-[2-(2-aminopyridin-3-yl)-5-(pyrazol-1-yl)imidazo[4,5-b]pyridin-3-yl]-2-fluoro-2,3-dihydro-1H-inden-1-yl]amino}-3-methylpiperidin-1-yl]prop-2-en-1-one]"
